{"source": "patent US8894927B2", "about": "“Shower sterilisation system and method of use thereof” (Omnia-Klenz Ltd., priority 2010, dated 2014)", "key": {"[1]": {"system": "aerobic counts of shower water", "test": "Hadfield office shower head, Petrifilm aerobic count after biocide treatment", "details": "5 ppm; for Mb. Analyses Aerobic: 0.05% solution, 30 min contact"}, "[2]": {"system": "yeast and mold counts of shower water", "test": "Hadfield office shower head, Petrifilm yeast and mold count after biocide treatment", "details": "0.05% solution, 5 ppm, 30 min contact"}, "[3]": {"details": "24 hours after biocide addition, (1) Resting, 18 °C"}, "[4]": {"details": "24 hours after biocide addition, (2) Shower running, 10 °C"}, "[5]": {"details": "24 hours after biocide addition, (3) Shower running, 15 °C"}, "[6]": {"details": "24 hours after biocide addition, (4) Shower running, 20 °C"}, "[7]": {"details": "24 hours after biocide addition, (5) Shower running, 25 °C"}, "[8]": {"details": "24 hours after biocide addition, (6) Shower running, 30 °C"}, "[9]": {"details": "24 hours after biocide addition, (7) Shower running, 35 °C"}, "[10]": {"details": "24 hours after biocide addition, (8) Shower running, 40 °C"}, "[11]": {"details": "24 hours after biocide addition, (9) Shower running - full heat, 43 °C"}, "[12]": {"details": "48 hours after biocide addition, (1) Resting, 17 °C"}, "[13]": {"details": "48 hours after biocide addition, (2) Shower running, 10 °C"}, "[14]": {"details": "48 hours after biocide addition, (3) Shower running, 15 °C"}, "[15]": {"details": "48 hours after biocide addition, (4) Shower running, 20 °C"}, "[16]": {"details": "48 hours after biocide addition, (5) Shower running, 25 °C"}, "[17]": {"details": "48 hours after biocide addition, (6) Shower running, 30 °C"}, "[18]": {"details": "48 hours after biocide addition, (7) Shower running, 35 °C"}, "[19]": {"details": "48 hours after biocide addition, (8) Shower running, 40 °C"}, "[20]": {"details": "48 hours after biocide addition, (9) Shower running - full heat, 42 °C"}}}
{"smiles": "CC1(C)C(=O)N(Cl)C(=O)N1Br", "note": "[Omnia-Stat SP, 1-Bromo-3-chloro-5,5-dimethylhydantoin, reference compound]", "values": [{"measurement": "Mb. Analyses Aerobic", "setting": "[1]; [3]", "result": 480, "unit": "cols/ml"}, {"measurement": "Mb. Analyses Aerobic", "setting": "[1]; [4]", "result": "No growth"}, {"measurement": "Mb. Analyses Aerobic", "setting": "[1]; [5]", "result": 1, "unit": "cols/ml"}, {"measurement": "Mb. Analyses Aerobic", "setting": "[1]; [6]", "result": 5, "unit": "cols/ml"}, {"measurement": "Mb. Analyses Aerobic", "setting": "[1]; [7]", "result": 10, "unit": "cols/ml"}, {"measurement": "Mb. Analyses Aerobic", "setting": "[1]; [8]", "result": 5, "unit": "cols/ml"}, {"measurement": "Mb. Analyses Aerobic", "setting": "[1]; [9]", "result": 6, "unit": "cols/ml"}, {"measurement": "Mb. Analyses Aerobic", "setting": "[1]; [10]", "result": "No growth"}, {"measurement": "Mb. Analyses Aerobic", "setting": "[1]; [11]", "result": "No growth"}, {"measurement": "Mb. Analyses Aerobic", "setting": "[1]; [12]", "result": 2600, "unit": "cols/ml"}, {"measurement": "Mb. Analyses Aerobic", "setting": "[1]; [13]", "result": 3, "unit": "cols/ml"}, {"measurement": "Mb. Analyses Aerobic", "setting": "[1]; [14]", "result": 3, "unit": "cols/ml"}, {"measurement": "Mb. Analyses Aerobic", "setting": "[1]; [15]", "result": 5, "unit": "cols/ml"}, {"measurement": "Mb. Analyses Aerobic", "setting": "[1]; [16]", "result": 9, "unit": "cols/ml"}, {"measurement": "Mb. Analyses Aerobic", "setting": "[1]; [17]", "result": 2, "unit": "cols/ml"}, {"measurement": "Mb. Analyses Aerobic", "setting": "[1]; [18]", "result": 10, "unit": "cols/ml"}, {"measurement": "Mb. Analyses Aerobic", "setting": "[1]; [19]", "result": 6, "unit": "cols/ml"}, {"measurement": "Mb. Analyses Aerobic", "setting": "[1]; [20]", "result": "No growth"}, {"measurement": "microbiological recovery after two days compared with the basic product (Table 3)", "setting": "[1]; shower after 19 days resting", "result": "considerably greater"}, {"measurement": "Mb. Analyses Yeast/Mold", "setting": "[2]; [3]", "result": "No growth"}, {"measurement": "Mb. Analyses Yeast/Mold", "setting": "[2]; [4]", "result": "No growth"}, {"measurement": "Mb. Analyses Yeast/Mold", "setting": "[2]; [5]", "result": "No growth"}, {"measurement": "Mb. Analyses Yeast/Mold", "setting": "[2]; [6]", "result": 4, "unit": "yeast cols/ml"}, {"measurement": "Mb. Analyses Yeast/Mold", "setting": "[2]; [7]", "result": 7, "unit": "yeast cols/ml"}, {"measurement": "Mb. Analyses Yeast/Mold", "setting": "[2]; [8]", "result": 3, "unit": "yeast cols/ml"}, {"measurement": "Mb. Analyses Yeast/Mold", "setting": "[2]; [9]", "result": 5, "unit": "yeast cols/ml"}, {"measurement": "Mb. Analyses Yeast/Mold", "setting": "[2]; [10]", "result": "No growth"}, {"measurement": "Mb. Analyses Yeast/Mold", "setting": "[2]; [11]", "result": "No growth"}, {"measurement": "Mb. Analyses Yeast/Mold", "setting": "[2]; [12]", "result": 9, "unit": "yeast cols/ml"}, {"measurement": "Mb. Analyses Yeast/Mold", "setting": "[2]; [13]", "result": 8, "unit": "yeast cols/ml"}, {"measurement": "Mb. Analyses Yeast/Mold", "setting": "[2]; [14]", "result": 6, "unit": "yeast cols/ml"}, {"measurement": "Mb. Analyses Yeast/Mold", "setting": "[2]; [15]", "result": 19, "unit": "yeast cols/ml"}, {"measurement": "Mb. Analyses Yeast/Mold", "setting": "[2]; [16]", "result": "No growth"}, {"measurement": "Mb. Analyses Yeast/Mold", "setting": "[2]; [17]", "result": 6, "unit": "yeast cols/ml"}, {"measurement": "Mb. Analyses Yeast/Mold", "setting": "[2]; [18]", "result": "No growth"}, {"measurement": "Mb. Analyses Yeast/Mold", "setting": "[2]; [19]", "result": 10, "unit": "yeast cols/ml"}, {"measurement": "Mb. Analyses Yeast/Mold", "setting": "[2]; [20]", "result": 5, "unit": "yeast cols/ml"}]}
